Data: the NIST ThermoML archive (doi:10.1016/j.jct.2016.07.012)

Assay: molar heat capacity at constant pressure
Details: 101.33 kPa, Small (less than 1 g) adiabatic calorimetry

CCCCn1cc[n+](C)c1.F[P-](F)(F)(F)(F)F [1-butyl-3-methylimidazolium hexafluorophosphate]
Details | molar heat capacity at constant pressure [J/K/mol]
125.32 K, Metastable crystal | 185.9
127.15 K, Metastable crystal | 191.2
127.23 K, Metastable crystal | 188.2
129.05 K, Metastable crystal | 193.4
129.15 K, Metastable crystal | 190.5
130.95 K, Metastable crystal | 195.6
131.06 K, Metastable crystal | 192.8
132.85 K, Metastable crystal | 197.9
132.97 K, Metastable crystal | 195.1
134.75 K, Metastable crystal | 200.2
134.88 K, Metastable crystal | 197.5
136.65 K, Metastable crystal | 202.5
136.8 K, Metastable crystal | 199.9
138.55 K, Metastable crystal | 204.9
138.71 K, Metastable crystal | 202.4
140.45 K, Metastable crystal | 207.2
140.62 K, Metastable crystal | 204.8
142.35 K, Metastable crystal | 209.7
142.52 K, Metastable crystal | 207.4
144.24 K, Metastable crystal | 212.3
144.42 K, Metastable crystal | 209.9
146.13 K, Metastable crystal | 214.9
146.33 K, Metastable crystal | 212.5
148.01 K, Metastable crystal | 217.6
148.23 K, Metastable crystal | 215.1
149.9 K, Metastable crystal | 220.4
150.13 K, Metastable crystal | 217.7
151.78 K, Metastable crystal | 223.4
152.02 K, Metastable crystal | 220.4
153.65 K, Metastable crystal | 226.5
153.91 K, Metastable crystal | 223.1
155.52 K, Metastable crystal | 229.7
155.79 K, Metastable crystal | 225.9
157.39 K, Metastable crystal | 233.2
157.67 K, Metastable crystal | 228.7
159.24 K, Metastable crystal | 236.9
159.55 K, Metastable crystal | 231.5
161.09 K, Metastable crystal | 241
161.42 K, Metastable crystal | 234.4
162.93 K, Metastable crystal | 245.5
163.29 K, Metastable crystal | 237.3
164.76 K, Metastable crystal | 250.5
165.15 K, Metastable crystal | 240.3
166.58 K, Metastable crystal | 256.4
167.01 K, Metastable crystal | 243.2
168.38 K, Metastable crystal | 263.5
168.87 K, Metastable crystal | 246.3
170.16 K, Metastable crystal | 272.5
170.71 K, Metastable crystal | 249.4
171.91 K, Metastable crystal | 285.3
172.55 K, Metastable crystal | 252.6
173.61 K, Metastable crystal | 306.7
174.39 K, Metastable crystal | 256.1
175.22 K, Metastable crystal | 360.5
176.22 K, Metastable crystal | 258.9
176.68 K, Metastable crystal | 448.8
178.04 K, Metastable crystal | 260.8
178.27 K, Metastable crystal | 265.8
179.86 K, Metastable crystal | 263.5
180.09 K, Metastable crystal | 261.1
181.68 K, Metastable crystal | 266.1
181.91 K, Metastable crystal | 261.4
183.5 K, Metastable crystal | 268.6
183.75 K, Metastable crystal | 262.7
185.31 K, Metastable crystal | 270.9
185.58 K, Metastable crystal | 264.6
187.12 K, Metastable crystal | 273
187.4 K, Metastable crystal | 266.8
188.92 K, Metastable crystal | 274.8
189.22 K, Metastable crystal | 269.2
190.72 K, Metastable crystal | 276.4
191.04 K, Metastable crystal | 271.8
192.53 K, Metastable crystal | 277.7
192.86 K, Metastable crystal | 274.6
194.33 K, Metastable crystal | 278.7
194.66 K, Metastable crystal | 277.6
196.13 K, Metastable crystal | 279.3
196.47 K, Metastable crystal | 280.8
197.94 K, Metastable crystal | 279.8
198.27 K, Metastable crystal | 284.1
199.74 K, Metastable crystal | 280
200.05 K, Metastable crystal | 287.7
201.61 K, Metastable crystal | 280.4
201.89 K, Metastable crystal | 291.8
203.54 K, Metastable crystal | 280.7
203.78 K, Metastable crystal | 296.2
205.47 K, Metastable crystal | 281
205.65 K, Metastable crystal | 301.3
207.4 K, Metastable crystal | 281.3
207.51 K, Metastable crystal | 306.9
209.34 K, Metastable crystal | 281.8
209.36 K, Metastable crystal | 313.5
211.19 K, Metastable crystal | 322.6
211.28 K, Metastable crystal | 282.5
213 K, Metastable crystal | 333.5
213.22 K, Metastable crystal | 283.4
214.77 K, Metastable crystal | 351.9
215.16 K, Metastable crystal | 284.4
216.47 K, Metastable crystal | 395.3
217.1 K, Metastable crystal | 285.1
218.22 K, Metastable crystal | 317.7
219.04 K, Metastable crystal | 285.7
220.12 K, Metastable crystal | 285.9
220.98 K, Metastable crystal | 286.7
222.07 K, Metastable crystal | 286.7
222.93 K, Metastable crystal | 287.8
224.04 K, Metastable crystal | 287.5
224.86 K, Metastable crystal | 288.7
226.9 K, Metastable crystal | 290
228.84 K, Metastable crystal | 291.1
230.78 K, Metastable crystal | 292
232.72 K, Metastable crystal | 293
234.67 K, Metastable crystal | 294.1
236.61 K, Metastable crystal | 295.2
238.55 K, Metastable crystal | 296.3
240.49 K, Metastable crystal | 298.3
242.43 K, Metastable crystal | 299.6
286.27 K, Liquid | 400.3
287.99 K, Liquid | 401.2
289.7 K, Liquid | 402.1
291.41 K, Liquid | 403
293.12 K, Liquid | 404
294.83 K, Liquid | 405.1
296.54 K, Liquid | 405.8
298.25 K, Liquid | 406.9
299.96 K, Liquid | 407.8
301.71 K, Liquid | 409.1
303.52 K, Liquid | 410.1
305.33 K, Liquid | 411
307.14 K, Liquid | 412
308.95 K, Liquid | 412.9
310.75 K, Liquid | 414
312.56 K, Liquid | 415.1
314.36 K, Liquid | 415.8
316.16 K, Liquid | 417
317.97 K, Liquid | 418
319.77 K, Liquid | 419.2
321.57 K, Liquid | 420.1
323.38 K, Liquid | 421
325.18 K, Liquid | 422
326.98 K, Liquid | 423.2
328.78 K, Liquid | 423.9
330.59 K, Liquid | 425
332.39 K, Liquid | 426.1
334.19 K, Liquid | 427.2
335.99 K, Liquid | 428.2
337.79 K, Liquid | 429.2
339.59 K, Liquid | 430.2
341.39 K, Liquid | 431.1
343.18 K, Liquid | 432.1
344.98 K, Liquid | 433.1
346.78 K, Liquid | 434.1
348.58 K, Liquid | 435.2
350.38 K, Liquid | 436.3
352.18 K, Liquid | 437.4
353.99 K, Liquid | 438.3
355.79 K, Liquid | 439.3
357.59 K, Liquid | 440.3
359.4 K, Liquid | 441.1
361.2 K, Liquid | 442.4
363 K, Liquid | 443.4
364.81 K, Liquid | 444.5
366.61 K, Liquid | 445.6
368.41 K, Liquid | 446.3
